Among the data in ChEMBL document CHEMBL3588827, “A new class of ghrelin O-acyltransferase inhibitors incorporating triazole-linked lipid mimetic groups” (Bioorg Med Chem Lett, 2015) are IC50 values, retold here.

What is called IC50 is the concentration that inhibits the measured activity by half. The low end stands for greater potency in that assay, the high end for weaker potency in that assay.

Where only a bound is given, the exact number is not on record here.

For the assay, the target named is T1, Membrane-bound ghrelin O-acyltransferase MBOAT4 (Homo sapiens, UniProt Q96T53).
T1 sequence (Q96T53 whole entry): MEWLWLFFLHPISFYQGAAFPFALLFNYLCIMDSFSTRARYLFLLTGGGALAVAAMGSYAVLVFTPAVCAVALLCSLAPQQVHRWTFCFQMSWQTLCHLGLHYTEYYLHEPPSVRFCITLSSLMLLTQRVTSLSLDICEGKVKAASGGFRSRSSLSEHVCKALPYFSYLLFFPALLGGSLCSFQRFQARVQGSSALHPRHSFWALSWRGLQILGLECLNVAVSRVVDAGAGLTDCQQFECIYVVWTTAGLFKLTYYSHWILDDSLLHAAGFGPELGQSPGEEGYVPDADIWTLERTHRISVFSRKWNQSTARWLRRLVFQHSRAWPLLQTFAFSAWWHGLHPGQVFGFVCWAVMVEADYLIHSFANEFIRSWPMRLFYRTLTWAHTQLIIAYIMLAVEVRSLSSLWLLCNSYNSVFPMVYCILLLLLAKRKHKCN
Put plainly: Inhibition of human GOAT octanoylation activity expressed in insect Sf9 cell membranes using GSSFLCAcDan as substrate after 1 hr by reverse phase HPLC with fluorescence detection method.
`CC(C)C[C@H](NC(=O)[C@H](Cc1ccccc1)NC(=O)[C@H](Cn1cc(CCCCc2ccccc2)nn1)NC(=O)[C@H](CO)NC(=O)CN)C(N)=O` showed a half-maximal inhibitory concentration (IC50) of more than 1 µM.
To `CC(C)C[C@H](NC(=O)[C@H](Cc1ccccc1)NC(=O)[C@H](Cn1cc(Cc2ccccc2)nn1)NC(=O)[C@H](CO)NC(=O)CN)C(N)=O` belongs 6 µM; to `CC(C)C[C@H](NC(=O)[C@H](Cc1ccccc1)NC(=O)[C@H](Cn1cc(CCCc2ccccc2)nn1)NC(=O)[C@H](CO)NC(=O)CN)C(N)=O`, 0.7 µM.
The figure for `CC(C)C[C@H](NC(=O)[C@H](Cc1ccccc1)NC(=O)[C@H](Cn1cc(CCc2ccccc2)nn1)NC(=O)[C@H](CO)NC(=O)CN)C(N)=O` is 3.8 µM.
